According to US20250248979A1, “NOVEL GPX4 INHIBITORS AND USES THEREOF” (THE TRUSTEES OF COLUMBIA UNIVERSITY IN THE CITY OF NEW YORK, priority 2022, published 2025):
Values after ≈ are worked out from the molar mass of the structure shown. Where two headings read alike, the source gives them in different places.

Key:
HT-1080 cells = experiment: Cellular dose response assay, HT-1080 with and without Fer-1; assay type: cell-based, human; conditions: for Selectivity: ferroptosis selectivity; for ferroptosis induction / potency in HT-1080 cells, result in words: RSL3 as control
In short: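 Cells were seeded at 1500 per well, grown overnight, then treated in triplicate with 12-point 2-fold compound dilutions (0.4% DMSO final) for 48 h at 37 °C, 5% CO2. HT-1080 series were run with and without Fer-1. Viability was read by CellTiter-Glo luminescence.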

in vitro [1] = assay type: in vitro ADME, human; conditions: human, microsomes
Description: (§1) […]. The incubation timepoints measured were 0, 5, 10, 15, 30, and 45 minutes. All samples were prepared in duplicate and analyzed by LC-MS/MS.

in vitro [2] = assay type: in vitro ADME, mouse; conditions: mouse, microsomes
Description: as §1

[3] = not given; remark: listed apart in the source
GPX4 = target: T1, GPX4 (Homo sapiens, UniProt P36969); experiment: GPX4 activity assay in cell lysates (NADPH-coupled); assay type: biochemical; set-up: endogenous in cells; host or cells: A-673 cell lysate; conditions: for GPX4% inhibition at 20 (μM) / GPX4% inhibition at 200 (μM): generation 2; for GPX4 inhibition / GPX4% inhibition at 200 (μM): 200 μM
T1 sequence (P36969 1-170 isoform P36969-2): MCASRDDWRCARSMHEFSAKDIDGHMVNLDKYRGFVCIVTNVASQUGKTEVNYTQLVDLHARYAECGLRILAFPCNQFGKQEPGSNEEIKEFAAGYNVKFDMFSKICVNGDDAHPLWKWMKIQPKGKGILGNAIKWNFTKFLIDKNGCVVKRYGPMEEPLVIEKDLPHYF
In short: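 Native GPX4 in lysates of A-673 cells grown with 20 nM sodium selenite; lysate preincubated with compound 45 min at 37 °C in pH 8.0 buffer with 3 mM GSH, 0.5 mM NADPH and glutathione reductase. Reaction started with phosphatidylcholine hydroperoxide; NADPH consumption followed at 340 nm over 25 min; triplicates.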

HepG2 cells = experiment: Cellular dose response assay, HepG2; assay type: cell-based, human; conditions: Table 7
Source text: (§2) HT-1080 (human [Homo sapiens] […] fibrosarcoma), A-673 (human [Homo sapiens] […] Ewing's sarcoma), and SK-HEP-1 (human [Homo sapiens] […] hepatic adenocarcinoma), cells were obtained from ATCC. Huh7 (human [Homo sapiens] […] hepatocellular carcinoma), HLF (human [Homo sapiens] […] hepatocellular carcinoma), HepG2 (human [Homo sapiens] […] hepatocellular carcinoma), cells were obtained from the Cancer Cell Bank at Columbia University Irving Medical Center. HT-1080, A-673, Huh-7, and HLF cells were grown in Dulbecco's Modified Eagle Medium (DMEM) supplemented with 10% heat inactivated fetal bovine serum (HI-FBS), 1% non-essential amino acids, and 1% penicillin streptomycin. HepG2 and SK-HEP-1 cells were grown in Eagle's Minimum Essential Medium (EMEM) supplemented with 10% HI-FBS, and 1% penicillin-streptomycin. All cells were cultured at 37° C. and 5% CO2.
(§3) HT-1080, HepG2, Huh7, HLF, and SK-HEP-1 cells were seeded into opaque white 384-well plates at 1500 cells per well then incubated at 37° C. with 5% CO2 overnight. The next day, compounds of interest were dissolved in DMSO and 12-point 2-fold dilution series were prepared with and without Fer-1. Cells were treated in triplicate (final DMSO concentration of 0.4% in all wells, including DMSO-only control wells) and incubated for a further 48 hours at 37° C. and 5% CO2. Cell viability was evaluated using CellTiter-Glo (Promega G7573) and luminescence was recorded on a Victor 5 plate reader. Data were analyzed in GraphPad Prism 9 and error bars represent standard deviation values for three technical replicates in a representative experiment.

Huh7 cells = experiment: Cellular dose response assay, Huh7; assay type: cell-based, human; conditions: Table 7
Source text: as §2, §3

HLF cells = experiment: Cellular dose response assay, HLF; assay type: cell-based, human; conditions: Table 7
Source text: as §2, §3

SK-HEP-1 cells = experiment: Cellular dose response assay, SK-HEP-1; assay type: cell-based, human; conditions: Table 7
Source text: as §2, §3

[4] = Kinetic aqueous solubility
[5] = system: DTP cells derived from PC9; experiment: Drug-tolerant persister cell model, DTP cells; conditions: for % Viability Persister: 48 hours
[6] = HT1080 + Fer-1, read-out: IC50 (uM) HT1080 + Fer-1
[7] = HT1080, without Fer-1, read-out: IC50 (uM) HT1080
[8] = compounds alone, Table 7, read-out: IC50 (uM) HT1080^a
[9] = with fer-1, Table 7, read-out: IC50 (uM) HT1080^b
[10] = compounds alone, read-out: IC50 (uM) HEPG2^a
[11] = with fer-1, read-out: IC50 (uM) HEPG2^b
[12] = compounds alone, read-out: IC50 (uM) Huh7^a
[13] = with fer-1, read-out: IC50 (uM) Huh7^b
[14] = compounds alone, read-out: IC50 (uM) SKHEP1^a
[15] = with fer-1, read-out: IC50 (uM) SKHEP1^b

Row | Compound | IC50 (HT-1080 cells; [6]) | IC50 (HT-1080 cells; [7]) | Selectivity (HT-1080 cells; HT1080 + Fer-1 vs HT1080) | Microsome Stability t1/2 (min) human (in vitro [1]) | Microsome Stability t1/2 (min) mouse (in vitro [2]) | Plasma Stability t1/2 (min) human | Plasma Stability t1/2 (min) mouse [3] | GPX4% inhibition at 2.5 μM (GPX4) | Solubility ([4]; aqueous solubility, Table 9) | GPX4% inhibition at 5 μM (GPX4) | also measured
1 | CC(OC(=O)CCl)C(C)(C)NC(=O)c1nn(C)c2cc(-c3ccc(N4CCOCC4)c(Cl)c3)ccc12 (racemic) [QW-737] | 1.7 µM | 1 µM | 1.7 | 8.6 min | 7.4 min | 275 min | 6.6 min | 86.4 ± 7.3% | – | – | –
2 | COc1c(Cl)cc(-c2ccc3c(C(=O)NC(C)(C)C(C)OC(=O)CCl)nn(C)c3c2)cc1Cl (racemic) [QW-745] | 1.8 µM | 1.6 µM | 1.1 | 19.5 min | 13.0 min | 245 min | 25.4 min | 55.4 ± 8.1% | – | – | –
3 | Cn1nc(C(=O)NC(C)(C)COC(=O)CCl)c2ccccc21 [QW-312] | – | – | – | 2.9 min | 1.7 min | – | – | – | 98 µM (≈ 31.7 µg/mL) | – | IC50 (HT-1080 cells; [8]): 5.4 µM; IC50 (HT-1080 cells; [9]): 76.3 µM; IC50 (HepG2 cells; [10]): 26.2 µM; IC50 (HepG2 cells; [11]): 180 µM; IC50 (Huh7 cells; [12]): 4.2 µM; IC50 (Huh7 cells; [13]): 122 µM; IC50 (HLF cells; compounds alone, read-out: IC50 (uM) HLF^a): 2.5 µM; IC50 (HLF cells; with fer-1, read-out: IC50 (uM) HLF^b): 58.1 µM; IC50 (SK-HEP-1 cells; [14]): 28.4 µM; IC50 (SK-HEP-1 cells; [15]): 202 µM; GPX4% inhibition at 20 (μM) (GPX4): 72.5 ± 6.7%; GPX4 inhibition (GPX4): complete inhibition; GPX4% inhibition at 200 (μM) (GPX4): 95.8 ± 4.0%
4 | CC(C)(COC(=O)CCl)NC(=O)c1n[nH]c2cc(Br)ccc12 [QW-313] | – | – | – | 9.7 min | 12.1 min | – | – | – | 47 µM (≈ 18.3 µg/mL) | – | IC50 (HT-1080 cells; [8]): 20.4 µM; IC50 (HT-1080 cells; [9]): 58.8 µM; IC50 (HepG2 cells; [10]): 12.8 µM; IC50 (HepG2 cells; [11]): 63.1 µM; IC50 (Huh7 cells; [12]): 17 µM; IC50 (Huh7 cells; [13]): 58.2 µM; IC50 (SK-HEP-1 cells; [14]): 47 µM; IC50 (SK-HEP-1 cells; [15]): 63.7 µM; GPX4% inhibition at 20 (μM) (GPX4): 53.8 ± 12.1%; GPX4 inhibition (GPX4): complete inhibition; GPX4% inhibition at 200 (μM) (GPX4): 97.6 ± 2.5%
5 | Cn1nc(C(=O)NC(C)(C)COC(=O)CCl)c2ccc(-c3csc4ccccc34)cc21 [QW-505] | – | – | – | 1.7 min | 1.8 min | 10.2 min | 6.3 min | – | <1.3 µM | 76.1 ± 4.0% | Solubility ([4]; 1% DMSO, Phosphate Buffered Saline pH 7.4, 1 hour, ambient, UV/Vis absorbance): <1.3 µM
6 | CC(C)Oc1ccc(-c2ccc3c(C(=O)NC(C)(C)COC(=O)CCl)nn(C)c3c2)cc1Cl [QW-550] | – | – | – | 49 min | 25 min | 73.2 min | 12.5 min | – | 7.8 µM (≈ 3.84 µg/mL) | 91.5 ± 2.2% | –
7 | Cn1nc(C(=O)NC(C)(C)COC(=O)CCl)c2ccc(-c3ccc(Oc4ccccc4)c(Cl)c3)cc21 [QW-561] | – | – | – | 12 min | 24 min | 116 min | 23.9 min | – | 15.6 µM (≈ 8.21 µg/mL) | 87.6 ± 2.8% | –
8 | Cn1nc(C(=O)NC(C)(C)COC(=O)CCl)c2ccc(-c3ccc(Cl)c(Cl)c3)cc21 [QW-570] | – | – | – | 22 min | 15 min | 56.7 min | 16.9 min | – | 15.6 µM (≈ 7.31 µg/mL) | 80.7 ± 14.8% | –
9 | COc1ccc(-c2ccc3c(C(=O)NC(C)(C)CNC(=O)CCl)nn(C)c3c2)cc1Cl [QW-628] | – | – | – | 15 min | 19 min | 243 min | 311 min | 33.6 ± 6.5% | – | – | –
10 | COc1ccc(CNS(=O)(=O)c2ccc(-c3ccc4c(C(=O)NC(C)(C)COC(=O)CCl)nn(C)c4c3)cc2)cc1 [QW-658] | 14.6 µM | 3.5 µM | 4.2 | – | – | 12.5 min | 6.2 min | 26.3 ± 63.2% | – | 20.9 ± 14.0% | –
11 | Cn1nc(C(=O)NC(C)(C)COC(=O)CCl)c2ccc(-c3ccc(OC(F)(F)F)c(Cl)c3)cc21 [QW-672] | 18.2 µM | 2.4 µM | 7.6 | 17 min | 19 min | 47.9 min | 4.7 min | 68.0 ± 45.2% | – | – | –
12 | Cn1nc(-n2cc(C(C)(C)COC(=O)CCl)nn2)c2ccc(-c3ccc(N4CCOCC4)c(Cl)c3)cc21 [QW-680] | 12.1 µM | 3 µM | 4.0 | 28 min | 26 min | 67.4 min | 3.2 min | 57.3 ± 2.8% | – | – | –
13 | COc1ccc(-c2ccc3c(C(=O)NC(COC(=O)CCl)C(F)(F)F)nn(C)c3c2)cc1Cl (stereo not shown) [QW-686] | – | – | – | – | – | 16.6 min | 23.8 min | 35.8 ± 14.3% | – | – | –
14 | COc1ccc(-c2ccc3c(C(=O)NC(C)(C)C(C)(C)OC(=O)CCl)nn(C)c3c2)cc1Cl [QW-730] | 5.7 µM | 0.59 µM | 9.7 | 6.6 min | 10.7 min | 318 min | 385 min | 98.4 ± 17.6% | – | – | ferroptosis induction / potency in HT-1080 cells, result in words (HT-1080 cells): sub-micromolar GI50 value
15 | COc1c(Cl)cc(-c2ccc3c(C(=O)NC(C)(C)C(C)(C)OC(=O)CCl)nn(C)c3c2)cc1Cl [QW-750] | 5.4 µM | 1.6 µM | 3.4 | 10.2 min | 13.5 min | 290 min | >1000 min | 20.4 ± 3.6% | – | – | ferroptosis induction / potency in HT-1080 cells, result in words (HT-1080 cells): moderate potency
16 | CC(C)(NC(=O)c1nn(Cc2ccc(Cl)cc2)c2cc(-c3ccc(N4CCOCC4)c(Cl)c3)ccc12)C(C)(C)OC(=O)CCl [QW-811] | – | – | – | – | – | – | – | – | – | – | Selectivity (HT-1080 cells; IC50 with Fer-1 / IC50): 45.4; IC50 (HT-1080 cells; with Fer-1, Table 10, read-out: IC50 (μM) HT1080 + Fer-1): 12.7 µM; IC50 (HT-1080 cells; without Fer-1, Table 10, read-out: IC50 (μM) HT1080): 0.28 µM; selectivity for DTPs vs PC9 parental cells, result in words [5]: selective and similar or stronger cytotoxicity to DTP cells; % Viability Persister ([5]; dose 1.0 μM): 93.00%; % Viability Persister ([5]; dose 10.0 μM): 4.75%; GPX4% inhibition at 2.5 μM (GPX4; 4th generation): 47.4 ± 8.9%
